{"source": "patent US11712443B2", "about": "“17α-monoesters and 17α,21-diesters of cortexolone for use in the treatment of tumors” (COSMO TECHNOLOGIES LTD., priority 2014, dated 2023)", "key": {"[1]": {"system": "stimulated PBMC", "experiment": "IC50 on stimulated PBMC (actively dividing cells)", "conditions": "for Therapeutic Index = IC50 resting PBMC/IC50 cancer cell: PBMC Stim, healthy lymphocyte, Table IV; for Therapeutic Index = IC50 stimulated PBMC/IC50 cancer cell, AVERAGE: average across the 7 cancer cell lines, Table VII", "protocol": "The IC^50 in PBMC were tested in 2 different activation status:\nstimulated—actively dividing cells\nIC50 of the compounds was determined on fresh cells isolated from human blood (PBMC). The compounds toxicity was determined as follow: Therapeutic Index=Safety/Potency=IC50 stimulated PBMC_/IC50 cancer cell"}, "[2]": {"system": "HT29", "experiment": "In vitro proliferation, larger cancer cell line panel", "conditions": "Homo sapiens, HT-29, read-out: in vitro proliferation IC50"}, "[3]": {"system": "Caspase 3/7", "experiment": "Caspase activity assay in MiaPaca2 cells", "type": "cell-based", "conditions": "8, 24, 48 hours, FIG. 11", "protocol": "To better analyze the phenomenon the enzymatic activity of Caspase 8 (initiator caspase for Extrinsic Pathway) and Caspase 9 (initiator caspase for Intrinsic Pathway) and of Caspases 3 and 7 (effector caspases) were measured.\nAfter 8, 24, & 48 hours incubation with test compounds, cells were lysed in buffer containing the caspase 3/7 or 8 or 9 substrate and a stable luciferase in proprietary buffers. The lysates were transferred to white opaque plates before measuring luminescence in a Tecan S afire instrument. Parallel plates treated identically, were used to determine viable cells. All caspase activities were corrected for the number of viable cells."}, "[4]": {"system": "MDA-MB-231", "experiment": "In vitro proliferation / cytotoxic assay on breast cancer cells (cell titer glo)", "type": "cell-based", "experimental": "(§1) For the cytotoxic assay: cells seeded in 96 well flat bottom culture plates in media containing charcoal stripped serum. After 24 hours test compounds were added to the cells. DMSO was used as the vehicle negative control and RU486 as the positive control. After 72 hours incubation cell were harvested, lysed and viability determined using the cell titer glow assay for viability."}, "[5]": {"system": "Panc1", "experiment": "ATP-dependent proliferation/viability assay (Cell Titer Glo), 3 days", "conditions": "IC50 stimulated PBMC / IC50 Panc1; Experiment 1; 0 = higher toxicity in PBMC than in the cancer cell lines"}, "[6]": {"system": "MiaPaca-2 pancreatic tumor xenograft", "experiment": "Human pancreatic tumor xenograft in nude mice, subcutaneous treatment", "type": "in vivo", "conditions": "for average tumor size increase: Cyproterone Acetate treatment groups (7.4 mg/kg and 37 mg/kg) SC daily 28 days", "experimental": "The test was carried out comparing the anti-tumor activity of cortexolone 17α-benzoate at two different dosages (8.0 mg/kg, corresponding approximately at 230 μM, and 40 mg/kg, corresponding approximately at 1150 μM), versus the vehicle (i.e. 0.4% (v/v) tween 80 and 0.5% (w/v) carboxymethylcellulose in normal saline) and versus the comparator Cyproterone Acetate at two different dosages (7.4 mg/kg and 37 mg/kg).\n1×10^6 MiaPaca-2 cells suspended in matrigel were subcutaneously injected into 6 week old athymic nude mice.\nThe treatment with the tested compounds, with the vehicle and with the comparative compound, was initiated after the tumor volume has reached 50 mm3 after transplantation. All compounds were injected 100 μL/mouse subcutaneously of low dose solution (approximately 230 μM) or 100 μL/mouse of high dose solution (approximately 1150 μM) of cortexolone 17α-benzoate, vehicle and cyproterone acetate, respectively. Compounds and controls were administered subcutaneously daily for 28 days.\nTumors were measured every 4 days with a digital caliper.\nThe results are plotted in FIG. 1 as average change in tumor volume relative to the start of treatment. Tumor volume was calculated according to the formula 0.5236(r1)^2(r2) where r1<r2.\nThe test was carried out comparing the anti-tumor activity of cortexolone 17α-valerate-21-propionate (CB-03-10) at two different dosages (approximately 8.6 mg/kg and 43 mg/kg) versus the vehicle (i.e. 0.4% (v/v) tween 80 and 0.5% (w/v) carboxymethylcellulose in normal saline) and versus the comparator Cyproterone Acetate at two different dosages (7.4 mg/kg and 37 mg/kg).\nThe treatment with the tested compound, with the vehicle and with the comparative compound was initiated after the tumor has reached a volume of 50 mm3 after implantation, injecting subcutaneously 100 μL/mouse of low dose solution (approximately 230 μM) or 100 μL/mouse of high dose solution (approximately 1150 μM) of cortexolone 17α-valerate-21-propionate (CB-03-10), vehicle and cyproterone acetate, respectively. Compounds and controls were administered subcutaneously daily for 28 days.\nThe results are plotted in FIG. 2 as average change in tumor volume relative to the start of treatment. Tumor volume was calculated according to the formula 0.5236(r1)^2(r2) where r1<r2.\nCPA a well-known anti-androgen was used as control. Briefly 1×10^6 MiaPaca2 cells suspended in matrigel were subcutaneously (SC) injected into 6 week old male athymic nude mice. Tumors were measured every 4 days with a digital caliper. Tumor volume was calculated according to the formula: 0.5236(r1)2(r2) where r1<r2. Treatment with CB-03-10 and controls compounds was initiated after the tumor had reached 50 mm3. Compounds diluted in DMSO/2-hydroxypropyl b-cyclodextrin (vehicle) were injected subcutaneously (SC) daily (100 μL/mouse) at the concentration of 40 mg/Kg daily for 28 consecutive days."}, "[7]": {"system": "LNCaP", "experiment": "ATP-dependent proliferation/viability assay (Cell Titer Glo), 3 days", "conditions": "Homo sapiens, LNCaP, 72 h, LNCaP (AR+); 10 nM DHT; 3 days; Examples 1-2 Experiment 1, sigmoidal dose response fit", "experimental": "(§2) The experiment was performed to test and to define the antitumor activity in vitro of cortexolone 17α-benzoate on LNCaP (AR+) and PC3 (AR^−), representative of Prostatic cancer cell lines with Androgen Receptor (AR) positive or negative expression, respectively. The experimental method consisted of: • 1. […] After 24 hours, 10 nM DHT (dihydrotestosterone) with or without anti-androgen compounds, or DMSO vehicle (negative control) was added to the cultures. • 3.\nas §2, with “define” for “define the”, “17α-valerate-21-propionate (CB-03-10)” for “17α-benzoate”, “AR” for “Androgen Receptor (AR)”"}, "[8]": {"system": "LNCaP prostate cancer xenograft", "experiment": "Human prostate cancer xenograft in nude mice, oral treatment", "type": "in vivo", "experimental": "3×10^6 LNCaP cells suspended in matrigel were subcutaneously injected (on the right flank) into 6 week old male athymic nude mice. Tumors were measured as described above. Treatment with CB-03-10 and controls compounds was initiated after the tumor had reached 50 mm3. […] Oral dosing was daily (100 mg/Kg in 200 μL/mouse) for 28 consecutive days. Results were plotted as average change in tumor volume relative to the start of treatment."}, "[9]": {"system": "MCF7", "experiment": "In vitro proliferation / cytotoxic assay on breast cancer cells (cell titer glo)", "conditions": "MCF7 (ER+PR+GR+/-); 72 hours; Table VI prints no unit (same values in Table III in μM)", "experimental": "as §1"}}, "data": [{"compound": "CCCC(=O)OC1(C(=O)CO)CCC2C3CCC4=CC(=O)CC[C@]4(C)C3=CC[C@@]21C", "note": "(single isomer, unassigned) [CB-03-04]", "values": [{"measurement": "Therapeutic Index = IC50 resting PBMC/IC50 cancer cell", "setting": "[1]", "value": 1}, {"measurement": "Therapeutic Index = IC50 stimulated PBMC/IC50 cancer cell, AVERAGE", "setting": "[1]", "value": 4}]}, {"compound": "CCC(=O)O[C@]1(C(=O)CO)CC[C@H]2[C@@H]3CCC4=CC(=O)CC[C@]4(C)[C@H]3CC[C@@]21C", "note": "[CB-03-01]", "values": [{"measurement": "Therapeutic Index = IC50 resting PBMC/IC50 cancer cell", "setting": "[1]", "value": 1}, {"measurement": "Therapeutic Index = IC50 stimulated PBMC/IC50 cancer cell, AVERAGE", "setting": "[1]", "value": 0}]}, {"compound": "CCCC(=O)OCC(=O)[C@@]1(OC(=O)CCC)CCC2C3CCC4=CC(=O)CC[C@]4(C)C3CC[C@@]21C", "note": "(some centres unmarked) [CB-03-03]", "values": [{"measurement": "Therapeutic Index = IC50 resting PBMC/IC50 cancer cell", "setting": "[1]", "value": 1}, {"measurement": "Therapeutic Index = IC50 stimulated PBMC/IC50 cancer cell, AVERAGE", "setting": "[1]", "value": 4}]}, {"compound": "CCCCC(=O)O[C@]1(C(=O)CO)CC[C@H]2[C@@H]3CCC4=CC(=O)CC[C@]4(C)[C@H]3CC[C@@]21C", "note": "[CB-03-05, cortexolone 17α-valerate]", "values": [{"measurement": "IC50", "setting": "[2]", "value": 530, "unit": "µM"}, {"measurement": "Caspase 3/7 induction / caspase activation profile", "setting": "[3]", "value": "does not show a good profile for caspase activation"}, {"measurement": "IC50", "setting": "[4]; MDA-MB-231 (ER-PR-GR++), TNBC, 72 hours, Table VI prints no unit (same values in Table III in μM)", "value": "Not active"}, {"measurement": "in vitro proliferation IC50", "setting": "[4]; MDA-MB-231, Table III", "value": "not active"}, {"measurement": "Therapeutic Index = IC50 resting PBMC/IC50 cancer cell", "setting": "[1]", "value": 1}, {"measurement": "Therapeutic Index = IC50 stimulated PBMC/IC50 cancer cell, AVERAGE", "setting": "[1]", "value": 3}]}, {"compound": "CC(=O)O[C@]1(C(C)=O)CC[C@H]2[C@@H]3C=C(Cl)C4=CC(=O)[C@@H]5C[C@@H]5[C@]4(C)[C@H]3CC[C@@]21C", "note": "[Cyproterone Acetate, Cyproterone acetate, reference compound]", "values": [{"measurement": "TI on Stimulated PBMC", "setting": "[5]", "value": 1}, {"measurement": "average tumor size increase", "setting": "[6]; Example 5", "value": 12, "unit": "fold"}, {"measurement": "average tumor size increase", "setting": "[6]; Example 6", "value": "≥ 12", "unit": "fold"}, {"measurement": "Median survival", "setting": "[6]; Example 22, 40 mg/Kg SC daily 28 days, vehicle 60 days", "value": 40, "unit": "days"}, {"measurement": "IC50", "setting": "[7]", "value": 29, "unit": "µM"}, {"measurement": "Therapeutic Index = IC50 resting PBMC/IC50 cancer cell", "setting": "[1]", "value": 1}, {"measurement": "Therapeutic Index = IC50 stimulated PBMC/IC50 cancer cell, AVERAGE", "setting": "[1]", "value": 1}]}, {"compound": "CNC(=O)c1ccc(N2C(=S)N(c3ccc(C#N)c(C(F)(F)F)c3)C(=O)C2(C)C)cc1F", "note": "[Enzalutamide, reference compound]", "values": [{"measurement": "prostate tumor size increase after treatment was stopped", "setting": "[8]; oral 100 mg/Kg daily 28 days, after stop", "value": 8, "unit": "fold"}, {"measurement": "statistical significance of tumor growth versus vehicle", "setting": "[8]; oral gavage, FIG. 16", "value": "statistically significant only on days 14 and 25"}]}, {"compound": "Nc1ccn([C@@H]2O[C@H](CO)[C@@H](O)C2(F)F)c(=O)n1", "note": "[Gemcitabine, reference compound]", "values": [{"measurement": "Caspase 3/7 induction / caspase activation profile", "setting": "[3]", "value": "not seen until the 48 hours mark"}]}, {"compound": "CC#C[C@]1(O)CC[C@H]2[C@@H]3CCC4=CC(=O)CCC4=C3[C@@H](c3ccc(N(C)C)cc3)C[C@@]21C", "note": "[RU486, Mifepristone, reference compound]", "values": [{"measurement": "IC50", "setting": "[9]", "value": "Not active"}]}]}
